According to publication PMC7181131, “N-Pyrazinoyl Substituted Amino Acids as Potential Antimycobacterial Agents—the Synthesis and Biological Evaluation of Enantiomers” (Molecules, 2020):
Converted amounts (≈) assume the structure as drawn. Read-outs that look alike come from different tables or passages of the source.

Tests used:
[1] = test system: Mtb H37Ra ITM-M006710 (ATCC 9431); assay: Microplate Alamar Blue Assay (MABA) microdilution, Mtb H37Ra; format: cell-based, Mycobacterium tuberculosis; conditions: Mycobacterium tuberculosis
[2] = test system: Mycobacterium aurum DSM 43999 (ATCC 23366); assay: Microplate Alamar Blue Assay (MABA) microdilution, M. aurum; format: cell-based
[3] = test system: M. smegmatis DSM 43465 (ATCC 607); assay: Microplate Alamar Blue Assay (MABA) microdilution, M. smegmatis; format: cell-based, Mycobacterium smegmatis
[4] = test system: Candida albicans CCM 8320 (ATCC 24433); assay: Antifungal microdilution broth method, CA; format: cell-based; conditions: 24 h, read-out: MIC CA
[5] = test system: Staphylococcus epidermidis CCM 4418 (ATCC 12228); assay: Antibacterial microdilution broth method, SE; format: cell-based; conditions: 24 h, read-out: MIC SE
[6] = test system: Aspergillus fumigatus ATCC 204305; assay: Antifungal microdilution broth method, AF; format: cell-based; conditions: ATCC204305, 48 h, read-out: MIC AF
[7] = test system: Klebsiella pneumoniae CCM 4415 (ATCC 10031); assay: Antibacterial microdilution broth method, KP; conditions: read after 24 h of incubation
[8] = test system: Aspergillus flavus CCM 8363; assay: Antifungal microdilution broth method, AFla; format: cell-based; conditions: CCM8363, read after 48 h (filamentous fungi), read-out: MIC AFla
Experimental: 6. In vitro antifungal activity screening
Antifungal activity evaluation was performed using a microdilution broth method according to EUCAST instructions (The European Committee on Antimicrobial Susceptibility Testing) with slight modifications. Eight fungal strains (four yeast and four mould strains) were used for antifungal […]
and Trichophyton interdigitale CCM 8377 (ATCC 9533). Tested strains were purchased from the Czech Collection of Microorganisms (CCM, Brno, Czech Republic) or from the American Type Collection Cultures (ATCC, Manassas, VA, USA). Tested compounds were dissolved in DMSO and diluted in a twofold manner with RPMI 1640 medium, with glutamine and 2% glucose, buffered to pH 7.0 with MOPS (3-morpholinopropane-1-sulfonic acid). The final concentration of DMSO in the testing […]
Static incubation was performed in the dark and in humid atmosphere, at 35±2 °C, for 24 and 48 h (72 and 120 h for Trichophyton interdigitale respectively). Positive controls consisted of test microbe solely, while negative controls consisted of cultivation medium and DMSO. Visual inspection and metabolic activity indicator, Alamar Blue (ThermoFisher Scientific), were used for MIC endpoint evaluation. The internal quality standards, amphotericin B (Sigma-Aldrich) and voriconazole (Toronto research Chemicals, CA) were involved in assays (for MIC of standards see Table S5). All experiments were conducted in duplicates.
For the results to be valid, the difference in MIC for one compound determined from two parallel measurements must not be greater than one step on the dilution scale.

[9] = test system: Candida krusei CCM 8271 (ATCC 6258); assay: Antifungal microdilution broth method, CK; format: cell-based; conditions: Pichia kudriavzevii, 24 h, read-out: MIC CK
[10] = test system: Candida parapsilosis CCM 8260 (ATCC 22019); assay: Antifungal microdilution broth method, CP; format: cell-based; conditions: Lodderomyces parapsilosis, 24 h, read-out: MIC CP
[11] = test system: Lichtheimia corymbifera CCM 8077; assay: Antifungal microdilution broth method, LC; format: cell-based; conditions: CCM8077, 48 h, read-out: MIC LC
[12] = test system: Candida tropicalis CCM 8264 (ATCC 750); assay: Antifungal microdilution broth method, CT; format: cell-based; conditions: 24 h, read-out: MIC CT
[13] = test system: Trichophyton interdigitale CCM 8377 (ATCC 9533); assay: Antifungal microdilution broth method, TI; format: cell-based; conditions: 48 h, read-out: MIC TI
[14] = pH 6.6, read-out: MIC Mtb H37Ra
[15] = pH 6, calculated from µg/mL, read-out: MIC Mtb H37Ra
[16] = Mycolicibacterium aurum, pH 6, read-out: MIC M. aurum µg/mL
[17] = Mycolicibacterium aurum, pH 6.6, read-out: MIC M. aurum
[18] = Mycolicibacterium smegmatis, pH 6, read-out: MIC M. smegmatis µg/mL
[19] = Mycolicibacterium smegmatis, pH 6.6, read-out: MIC M. smegmatis

SMILES | MIC ([1]; pH 6, read-out: MIC Mtb H37Ra) | MIC [1, 14] | MIC [1, 15] | MIC ([1]; pH 6) | MIC [4] | MIC [5] | MIC [6] | MIC KP [7] | MIC [8] | MIC [2, 16] | MIC [2, 17] | MIC [9] | MIC [10] | MIC [11] | MIC [3, 18] | MIC [3, 19] | MIC [12] | MIC [13] | also measured
O=C(O)c1cn(C2CC2)c2cc(N3CCNCC3)c(F)cc2c1=O [CPX, ciprofloxacin, reference compound] | 0.25 µg/mL | 0.125 to 0.25 µg/mL | 0.75 µM | – | – | – | – | – | – | – | – | – | – | – | – | – | – | – | MIC ([2]; Mycolicibacterium aurum, pH 6; read-out: MIC M. aurum): 0.0625 µg/mL (≈ 0.189 µM); MIC ([2]; Mycolicibacterium aurum, pH 6.6; read-out: MIC M. aurum): 0.0078 to 0.0156 µg/mL (≈ 0.0235 to 0.0471 µM); MIC ([3]; Mycolicibacterium smegmatis, pH 6; read-out: MIC M. smegmatis): 0.0625 to 0.25 µg/mL (≈ 0.189 to 0.754 µM); MIC ([3]; Mycolicibacterium smegmatis, pH 6.6; read-out: MIC M. smegmatis): 0.0625 to 0.125 µg/mL (≈ 0.189 to 0.377 µM)
CCOC(=O)[C@@H](Cc1c[nH]c2ccccc12)NC(=O)c1cnccn1 [PC-D-Trp-Et, ethyl (pyrazine-2-carbonyl)-D-tryptophanate] | 62.5 µg/mL | 125 µg/mL | 185 µM | 62.5 µg/mL | > 500 µM | > 500 µM | > 500 µM | > 500 µM | > 500 µM | 62.5 µg/mL (≈ 185 µM) | 250 µg/mL (≈ 739 µM) | > 500 µM | > 500 µM | > 500 µM | 250 µg/mL (≈ 739 µM) | 250 µg/mL (≈ 739 µM) | > 500 µM | > 500 µM | –
COC(=O)[C@@H](NC(=O)c1cnccn1)[C@@H](C)O [PC-L-Thr-Me, methyl (pyrazine-2-carbonyl)-L-threoninate] | ≥ 500 µg/mL | ≥ 500 µg/mL | ≥ 2090 µM | ≥ 500 µg/mL | > 500 µM | > 500 µM | > 500 µM | > 500 µM | > 500 µM | ≥ 500 µg/mL | ≥ 500 µg/mL | > 500 µM | > 500 µM | > 500 µM | ≥ 500 µg/mL | ≥ 500 µg/mL | > 500 µM | 500 µM (≈ 120 µg/mL) | –
COC(=O)[C@@H](Cc1ccc(O)cc1)NC(=O)c1cnccn1 [PC-D-Tyr-Me, methyl (pyrazine-2-carbonyl)-D-tyrosinate] | 125 µg/mL | ≥ 500 µg/mL | 415 µM | 125 µg/mL | > 500 µM | > 500 µM | > 500 µM | > 500 µM | > 500 µM | ≥ 250 µg/mL | ≥ 500 µg/mL | > 500 µM | > 500 µM | > 500 µM | ≥ 500 µg/mL | ≥ 500 µg/mL | > 500 µM | > 500 µM | –
COC(=O)[C@H](CO)NC(=O)c1cnccn1 [PC-L-Ser-Me, methyl (pyrazine-2-carbonyl)-L-serinate] | ≥ 500 µg/mL | ≥ 500 µg/mL | ≥ 2220 µM | ≥ 500 µg/mL | > 500 µM | > 500 µM | > 500 µM | > 500 µM | > 500 µM | ≥ 500 µg/mL | ≥ 500 µg/mL | > 500 µM | > 500 µM | > 500 µM | ≥ 500 µg/mL | ≥ 500 µg/mL | > 500 µM | > 500 µM | –
